Measured values: patent US20240082296A1, “TREATMENT OF MUSCLE ATROPHY USING DEXTRAN SULFATE” (TX MEDIC AB, priority 2020, published 2024)
Marks after values point to notes of the source that are not given here.

Tested on: severe traumatic brain injury (sTBI) in rats
Assay: HPLC of purine-pyrimidine / energy metabolites in rat brain after sTBI (Example 4)
Assay type: in vivo
Description: The effects of daily sub-cutaneous injections of dextran sulfate on glutamate excitotoxicity and mitochondrial function after severe traumatic brain injury (sTBI) in rats were evaluated by high-performance liquid chromatography (HPLC) analysis of frozen brain samples.
The experimental protocol used in this study was approved by the Ethical Committee of the Catholic University of Rome, according to international standards and guidelines for animal care. Male Wistar rats of 300-350 g body weight (b.w.) were fed with standard laboratory diet and water ad libitum in a controlled environment.
They were divided into three groups: • 1) n=6 animals subjected to sTBI, with drug administration after 30 minutes and sacrifice at 2 days post-TBI (Acute phase 1) • 2) n=6 animals subjected to severe-TBI, with drug administration after 30 minutes and sacrifice at 7 days post-TBI (Acute phase 2). • 3) n=6 animals subjected to severe-TBI, with drug administration after 3 days and sacrifice at 7 days post-TBI (Chronic phase).
As the anesthetic mixture, animals received 35 mg/kg b.w. ketamine and 0.25 mg/kg b.w. midazolam by i.p. injection. sTBI was induced by dropping a 450 g weight from 2 m height on to the rat head that had been protected by a metal disk previously fixed on the skull, according to the “weight drop” impact acceleration model (Marmarou et al., A new model of diffuse brain injury in rats. Part I: Pathophysiology and biomechanics. J Neurosurg. 1994; 80: 291-300). […] At the end of each period of treatment, rats were anesthetized again and then immediately sacrificed.
The drug treatment was a subcutaneous injection of 0.5 ml of dextran sulfate (Tikomed AB, Viken, Sweden, WO 2016/076780; 15 mg/kg) and administered according to the aforementioned schematic protocol.
An in vivo craniectomy was performed in all animals during anesthesia, after carefully removing the rat's skull, the brain was exposed and removed with a surgical spatula and quickly dropped in liquid nitrogen. After the wet weight (w.w.) determination, tissue preparation was affected as previously disclosed (Tavazzi et al., Cerebral oxidative stress and depression of energy metabolism correlate with severity of diffuse brain injury in rats. Neurosurgery. 2005; 56: 582-589; Vagnozzi et al., Temporal window of metabolic brain vulnerability to concussions: mitochondrial-related impairment-part I. Neurosurgery. 2007; 61: 379-388; Tavazzi et al., Temporal window of metabolic brain vulnerability to concussions: oxidative and nitrosative stresses-part II. Neurosurgery. 2007; 61: 390-395; Amorini et al., Severity of experimental traumatic brain injury modulates changes in concentrations of cerebral free amino acids. J Cell Mol Med. 2017; 21: 530-542.). Briefly, whole brain homogenization was performed with 7 ml of ice-cold, nitrogen-saturated, precipitating solution composed by CH3CN+10 mM KH2PO4, pH 7.40, (3:1; v:v), and using an Ultra-Turrax set at 24,000 rpm/min (Janke & Kunkel, Staufen, Germany). After centrifugation at 20,690×g, for 10 min at 4° C., the clear supernatants were saved, pellets were supplemented with 3 ml of the precipitating solution and homogenized again as described above. A second centrifugation was performed (20,690×g, for 10 min at 4° C.), pellets were saved, supernatants combined with those previously obtained, extracted by vigorous agitation with a double volume of HPLC-grade CHCl3 and centrifuged as above. The upper aqueous phases containing water-soluble low-molecular weight compounds were collected, subjected to chloroform washings for two more times (this procedure allowed the removal of all the organic solvent and of any lipid soluble compound from the buffered tissue extracts), adjusted in volumes with 10 mM KH2PO4, pH 7.40, to have ultimately aqueous 10% tissue homogenates and saved at −80° C. until assayed. […]

[1] = Acute phase 2 (15 mg/kg s.c. 30 min after sTBI, sacrifice 7 days post-TBI)
[2] = Chronic phase (15 mg/kg s.c. 3 days after sTBI, sacrifice 7 days post-TBI)
[3] = rat brain after sTBI, after administration

## dextran sulfate
[1]
  UDP-GalNac concentration: 19.90 ± 3.12^a,e nmol/g (w.w.)
  UDP-Glc concentration: 44.44 ± 7.59^j nmol/g (w.w.)
  UDP-GlcNac concentration: 130.65 ± 28.41^a nmol/g (w.w.)
  UMP concentration: 138.73 ± 32.01^b nmol/g (w.w.)
  UTP concentration: 146.71 ± 32.68^e nmol/g (w.w.)
  acetyl-CoA concentration: 36.86 ± 4.11^e nmol/g (w.w.)
  adenine concentration: 58.16 ± 6.36^a,f nmol/g (w.w.)
  ascorbic acid concentration: 3512.58 ± 224.62^a,e nmol/g (w.w.)
  creatinine concentration: 37.27 ± 5.82^a,e,j nmol/g (w.w.)
  cytidine concentration: 16.18 ± 4.21^e nmol/g (w.w.)
  cytosine concentration: 15.70 ± 4.10^f nmol/g (w.w.)
  guanine concentration: 4.73 ± 1.07 nmol/g (w.w.)
  guanosine concentration: 17.90 ± 3.24^j nmol/g (w.w.)
  hypoxanthine concentration: 12.90 ± 2.58^a,j nmol/g (w.w.)
  inosine concentration: 85.52 ± 20.36^e nmol/g (w.w.)
  malonyl-CoA concentration: 11.29 ± 2.27^b nmol/g (w.w.)
  orotic acid concentration: 13.34 ± 3.65^a nmol/g (w.w.)
  thymidine concentration: 0.49 ± 0.20^f nmol/g (w.w.)
  uracil concentration: 19.40 ± 7.52^a,e nmol/g (w.w.)
  uric acid concentration: 19.17 ± 2.15^a,h,i nmol/g (w.w.)
  uridine concentration: 63.02 ± 9.66^b,e nmol/g (w.w.)
  xanthine concentration: 10.41 ± 2.11^f nmol/g (w.w.)
  β-pseudouridine concentration: 13.26 ± 3.16^a,e,j nmol/g (w.w.)
[2]
  ADO concentration: 89.97 ± 12.98^a nmol/g (w.w.)
  ADP concentration: 315.53 ± 46.53^a nmol/g (w.w.)
  ADP-ribose concentration: 173.94 ± 8.45^a nmol/g (w.w.)
  AMP concentration: 90.01 ± 21.24^a nmol/g (w.w.)
  ATP concentration: 1381.03 ± 212.64^a nmol/g (w.w.)
  CDP choline concentration: 8.37 ± 2.19 nmol/g (w.w.)
  CDP concentration: 23.55 ± 6.45^a nmol/g (w.w.)
  CMP concentration: 20.51 ± 3.73^a,f nmol/g (w.w.)
  CTP concentration: 25.23 ± 2.93^a,f nmol/g (w.w.)
  CoA-SH concentration: 27.58 ± 6.24^f nmol/g (w.w.)
  GDP concentration: 173.05 ± 28.68^a,e nmol/g (w.w.)
  GDP glucose concentration: 43.85 ± 5.06^b nmol/g (w.w.)
  GMP concentration: 148.56 ± 31.21^a nmol/g (w.w.)
  GSH concentration: 2608.67 ± 358.07^a,e nmol/g (w.w.)
  GSSG concentration: 231.08 ± 44.34^b,f nmol/g (w.w.)
  GTP concentration: 290.92 ± 34.68^a,f nmol/g (w.w.)
  IMP concentration: 99.29 ± 13.82^a nmol/g (w.w.)
  MDA concentration: 11.62 ± 3.90^a,e nmol/g (w.w.)
  NAA concentration: 6375.36 ± 974.12^a,e nmol/g (w.w.)
  NADH concentration: 11.78 ± 3.32^e nmol/g (w.w.)
  NADPH concentration: 7.34 ± 2.65^f nmol/g (w.w.)
  NADP^+ concentration: 16.44 ± 2.66^a,f nmol/g (w.w.)
  NAD^+ concentration: 301.13 ± 29.90^a nmol/g (w.w.)
  NO2 concentration: 217.67 ± 55.04^a nmol/g (w.w.)
  NO3 concentration: 241.27 ± 18.84^e nmol/g (w.w.)
  UDP concentration: 57.40 ± 5.88^a,f nmol/g (w.w.)
  UDP-Gal concentration: 122.29 ± 12.15 nmol/g (w.w.)
  UDP-GalNac concentration: 21.84 ± 2.80^a,e nmol/g (w.w.)
  UDP-Glc concentration: 35.79 ± 3.45^b nmol/g (w.w.)
  UDP-GlcNac concentration: 129.42 ± 15.88^b nmol/g (w.w.)
  UMP concentration: 103.11 ± 29.79 nmol/g (w.w.)
  UTP concentration: 136.80 ± 33.25^f nmol/g (w.w.)
  acetyl-CoA concentration: 35.68 ± 6.55^e nmol/g (w.w.)
  adenine concentration: 52.94 ± 8.59^a,f nmol/g (w.w.)
  ascorbic acid concentration: 3375.03 ± 856.41^a,e nmol/g (w.w.)
  creatinine concentration: 51.25 ± 10.17^a,f nmol/g (w.w.)
  cytidine concentration: 14.71 ± 2.83^e nmol/g (w.w.)
  cytosine concentration: 15.58 ± 2.50^b,f nmol/g (w.w.)
  guanine concentration: 5.31 ± 1.04^b nmol/g (w.w.)
  guanosine concentration: 28.87 ± 7.60^a,f nmol/g (w.w.)
  hypoxanthine concentration: 17.97 ± 4.49^a nmol/g (w.w.)
  inosine concentration: 105.81 ± 25.57^f nmol/g (w.w.)
  malonyl-CoA concentration: 10.00 ± 1.95^b nmol/g (w.w.)
  orotic acid concentration: 12.05 ± 1.50^a nmol/g (w.w.)
  thymidine concentration: 0.71 ± 0.11 nmol/g (w.w.)
  uracil concentration: 16.57 ± 2.99^a,f nmol/g (w.w.)
  uric acid concentration: 27.77 ± 3.60^a nmol/g (w.w.)
  uridine concentration: 63.28 ± 3.37^f nmol/g (w.w.)
  xanthine concentration: 9.35 ± 0.83^f nmol/g (w.w.)
  β-pseudouridine concentration: 18.62 ± 2.80^a nmol/g (w.w.)
Both the acute and chronic phases of sTBI
  cerebral nitrate concentrations: significantly decreased
[3]
  cerebral GSH level: significant improvement
  cerebral MDA levels: significant reduction
  cerebral NAA and its substrates: significant improvements
  cerebral ascorbic acid level: significant improvement
